Measurements from US20110086759A1, “CHEMICAL COMPOUNDS” (SYNGENTA CROP PROTECTION, INC., priority 2007, published 2011).

Tests used:
Assay type in all cases: in vivo
[1] = test system: Alopecurus myosuroides (ALOMY); test: Pre-emergence biological efficacy, glasshouse pot test; conditions: 312 h, pre-emergence, rate 1,000 g/ha, evaluated after 13 days (100=total damage to plant; 0=no damage), read-out: Percentage damage caused to weed species, ALOMY
Procedure, shortened: (§1)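 Compound was applied as a spray one day after sowing, at a final dose of 1000 or 250 g/ha. Plants grew under 14 h light, 24/16 °C and 65% humidity, and injury was assessed on day 13 on a 0–100 scale.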

[2] = test system: Amaranthus retoflexus (AMARE); test: as above; conditions: Amaranthus retroflexus, 312 h; pre-emergence, rate 1,000 g/ha, evaluated after 13 days (100=total damage to plant; 0=no damage); read-out: Percentage damage caused to weed species, AMARE
Procedure, shortened: as §1

[3] = test system: Echinochloa crus-galli (ECHCG); test: as above; conditions: 312 h, pre-emergence, rate 1,000 g/ha, evaluated after 13 days (100=total damage to plant; 0=no damage), read-out: Percentage damage caused to weed species, ECHCG
Procedure, shortened: as §1

[4] = test system: Ipomea hederaceae (IPOHE); test: as above; conditions: Ipomoea hederacea, 312 h; pre-emergence, rate 1,000 g/ha, evaluated after 13 days (100=total damage to plant; 0=no damage); read-out: Percentage damage caused to weed species, IPOHE
Procedure, shortened: as §1

[5] = test system: Setaria faberi (SETFA); test: as above; conditions: 312 h, pre-emergence, rate 1,000 g/ha, evaluated after 13 days (100=total damage to plant; 0=no damage), read-out: Percentage damage caused to weed species, SETFA
Procedure, shortened: as §1

[6] = test system: Solanum nigrum (SOLNI); test: as above; conditions: 312 h, pre-emergence, rate 1,000 g/ha, evaluated after 13 days (100=total damage to plant; 0=no damage), read-out: Percentage damage caused to weed species, SOLNI
Procedure, shortened: as §1

[7] = test system: Alopecurus myosuroides (ALOMY); test: Post-emergence biological efficacy, glasshouse pot test; conditions: 312 h, Rate 1,000 g/ha, post-emergence spray, evaluated after 13 days (100=total damage to plant; 0=no damage to plant), read-out: Percentage damage caused to weed species, post-emergence, ALOMY
Procedure, shortened: (§2)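 Plants were sown in standard soil and grown 8 days in a glasshouse (24/16° C. day/night, 14 hours light, 65% humidity), then sprayed post-emergence at 1000 or 250 g/ha from acetone/water (50:50) with 0.5% Tween 20. Damage was scored visually after 13 days (0 = none, 100 = total).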

[8] = test system: Amaranthus retoflexus (AMARE); test: as above; conditions: Amaranthus retroflexus, 312 h; Rate 1,000 g/ha; post-emergence spray; evaluated after 13 days (100=total damage to plant; 0=no damage to plant); read-out: Percentage damage caused to weed species, post-emergence, AMARE
Procedure, shortened: as §2

[9] = test system: Echinochloa crus-galli (ECHCG); test: as above; conditions: 312 h, Rate 1,000 g/ha, post-emergence spray, evaluated after 13 days (100=total damage to plant; 0=no damage to plant), read-out: Percentage damage caused to weed species, post-emergence, ECHCG
Procedure, shortened: as §2

[10] = test system: Ipomea hederaceae (IPOHE); test: as above; conditions: Ipomoea hederacea, 312 h; Rate 1,000 g/ha; post-emergence spray; evaluated after 13 days (100=total damage to plant; 0=no damage to plant); read-out: Percentage damage caused to weed species, post-emergence, IPOHE
Procedure, shortened: as §2

[11] = test system: Setaria faberi (SETFA); test: as above; conditions: 312 h, Rate 1,000 g/ha, post-emergence spray, evaluated after 13 days (100=total damage to plant; 0=no damage to plant), read-out: Percentage damage caused to weed species, post-emergence, SETFA
Procedure, shortened: as §2

[12] = test system: Solanum nigrum (SOLNI); test: as above; conditions: 312 h, Rate 1,000 g/ha, post-emergence spray, evaluated after 13 days (100=total damage to plant; 0=no damage to plant), read-out: Percentage damage caused to weed species, post-emergence, SOLNI
Procedure, shortened: as §2

SMILES	pest or weed control at 1000 g/ha [1] [%]	pest or weed control at 1000 g/ha [2] [%]	pest or weed control at 1000 g/ha [3] [%]	pest or weed control at 1000 g/ha [4] [%]	pest or weed control at 1000 g/ha [5] [%]	pest or weed control at 1000 g/ha [6] [%]	pest or weed control at 1000 g/ha [7] [%]	pest or weed control at 1000 g/ha [8] [%]	pest or weed control at 1000 g/ha [9] [%]	pest or weed control at 1000 g/ha [10] [%]	pest or weed control at 1000 g/ha [11] [%]	pest or weed control at 1000 g/ha [12] [%]
CCN(Cc1c(F)cccc1Cl)c1nc(C2CC2)nc(C(=O)OC)c1Cl [Compound 6-102, 5-Chloro-4-[N-(2-chloro-6-fluorophenylmethyl)-N-ethyl-amino]-2-cyclopropyl-6-methoxycarbonyl-pyrimidine]	0	100	0	60	0	60	20	100	70	90	80	90
CCN(Cc1ccc(OC)c(OC)c1)c1nc(C2CC2)nc(C(=O)OC)c1Cl [Compound 6-112, 5-Chloro-2-cyclopropyl-4-[N-(3,4-dimethoxy-phenylmethyl)-N-ethyl-amino]-6-methoxycarbonyl-pyrimidine]	10	60	10	60	0	10	30	100	70	80	80	80
CCN(Cc1ccco1)c1nc(C2CC2)nc(C(=O)OC)c1Cl [Compound 6-125, 5-Chloro-2-cyclopropyl-4-(N-ethyl-N-furan-2-ylmethyl-amino)-6-methoxycarbonyl-pyrimidine]	50	90	40	100	30	80	40	100	60	100	90	90
CCN(Cc1ccc(C)o1)c1nc(C2CC2)nc(C(=O)OC)c1Cl [Compound 6-135, 5-Chloro-2-cyclopropyl-4-[N-ethyl-N-(5-methylfuran-2-ylmethyl)-amino]-6-methoxycarbonyl-pyrimidine]	40	100	60	100	40	80	30	100	60	90	90	90
CCN(Cc1cccs1)c1nc(C2CC2)nc(C(=O)OC)c1Cl [Compound 6-140, 5-Chloro-2-cyclopropyl-4-(N-ethyl-N-thiophen-2-ylmethyl-amino)6-methoxycarbonyl-pyrimidine]	10	80	20	80	0	30	40	100	40	100	70	80
CCN(Cc1ccc(Br)s1)c1nc(C2CC2)nc(C(=O)OC)c1Cl [Compound 6-142, 4-[N-(5-bromothiophen-2-ylmethyl)-N-ethyl-amino]-5-chloro-2-cyclopropyl-6-methoxycarbonyl-pyrimidine]	0	50	0	60	10	10	30	100	60	100	90	90
CCN(Cc1ccnc(C)n1)c1nc(C2CC2)nc(C(=O)OC)c1Cl [Compound 6-161, 5-Chloro-2-cyclopropyl-4-[N-ethyl-N-(2-methylpyrimidin-4-ylmethyl)-amino]-6-methoxycarbonyl-pyrimidine]	0	100	0	80	0	20	0	70	0	80	30	70
CCOC(=O)c1nc(C2CC2)nc(NCc2ccccc2)c1Cl [Compound 7-60, 5-chloro-2-cyclopropyl-6-ethoxycarbonyl-4-phenylmethyl-aminopyrimidine]	30	70	50	70	50	90	30	100	70	90	90	90
CCOC(=O)c1nc(C2CC2)nc(NCc2ccco2)c1Cl [Compound 7-125, 5-Chloro-2-cyclopropyl-6-ethoxycarbonyl-4-(2-furanylmethyl-amino)pyrimidine]	60	100	90	100	80	100	90	100	80	100	90	90
O=C(O)c1nc(-c2ccc(Cl)cc2)nc(NCc2ccco2)c1Cl [Compound 37-125, 5-Chloro-2-(4-chlorophenyl)-4-(furan-2-ylmethylamino)-pyrimidine-6-carboxylic acid]	50	100	90	40	90	100	70	100	90	100	100	100
COC(=O)c1nc(-c2ccc(Cl)cc2)nc(NC2CC2)c1Cl [Compound 40-1, 5-Chloro-2-(4-chloro-phenyl)-4-cyclo-propylamino-6-methoxycarbonyl-pyrimidine]	40	100	50	30	30	40	40	100	50	70	90	100
